Experiments:
Format in all cases: cell membranes, Membrane
[1] = molecular target: Dopamine receptor; experiment: Inhibition of [3H]spiroperidol binding to dopamine receptor from rat striatum membranes
[2] = molecular target: Adrenergic receptor beta (Rattus norvegicus, UniProt P18090+P10608+P26255); experiment: Inhibition of [3H]dihydroalprenolol binding to Beta adrenergic receptor from rat cerebral cortical membranes
[3] = molecular target: Adrenergic receptor alpha; experiment: Inhibition of [3H]WB-4101 binding to alpha adrenergic receptor from rat cerebral cortical membranes

| SMILES | Ki [1] | Ki [2] | Ki [3] |
| --- | --- | --- | --- |
| COc1ccc(CC2NCCc3cc(OC)c(O)cc32)cc1O (configuration not stated) | 3.8 µM | 4 µM | 7.5 µM |
| COc1cc2c(cc1O)C(Cc1ccc(O)c(O)c1)NCC2 (configuration not stated) | 4.5 µM | 0.2 µM | 7.5 µM |
| Oc1ccc(C[C@H]2NCCc3cc(O)c(O)cc32)cc1O | 35 µM | 30 µM | 25 µM |
| Oc1cc(Br)c(CC2NCCc3cc(O)c(O)cc32)cc1O (configuration not stated) | 1.5 µM | 40 µM | 0.5 µM |
| COc1cc(CC2(C(=O)O)NCCc3cc(O)c(O)cc32)ccc1O (configuration not stated) | > 100 µM | > 100 µM | > 100 µM |
| O=C(O)C1(Cc2ccc(O)c(O)c2)NCCc2cc(O)c(O)cc21 (configuration not stated) | > 100 µM | > 100 µM | > 100 µM |
| COc1ccc(C[C@H]2NCCc3cc(OC)c(O)cc32)cc1O | 30 µM | 30 µM | 10 µM |
| Oc1ccc(CC2NCCc3cc(O)c(O)cc32)cc1O (configuration not stated) | 10 µM | 0.3 µM | 40 µM |
| COc1cc(CC2NCCc3cc(O)c(O)cc32)ccc1O (configuration not stated) | 5 µM | 0.5 µM | 4.5 µM |
| Oc1ccc(C[C@@H]2NCCc3cc(O)c(O)cc32)cc1O | 2 µM | 0.3 µM | 5 µM |
| COc1ccc(C[C@@H]2NCCc3cc(OC)c(O)cc32)cc1O | 1.5 µM | 1.3 µM | 5 µM |
| COc1ccc(CC2NCCc3cc(OC)c(OC)cc32)cc1OC (configuration not stated) [TETRAHYDROPAPAVERINE] |  | 1 µM | 10 µM |
| COc1cc(C[C@@H]2NCCc3cc(O)c(O)cc32)cc(OC)c1OC [TRETOQUINOL] | 5 µM |  | 10 µM |
